From patent US5324648A, “Substituted isocoumarins as serine protease inhibitors and anti-inflammatory agents” (Georgia Tech Research Corporation, priority 1992, dated 1994)
Where two headings read alike, the source gives them in different places.

Legend:
chymotrypsin [1] = molecular target: T1, chymotrypsin (Bos taurus, UniProt P00766); assay: Inactivation of chymotrypsin; assay type: biochemical, bovine; details: pH 7.5, 25° C, read-out: kobs/[I]
cathepsin G = molecular target: T2, cathepsin G (Homo sapiens, UniProt P08311); assay: Inactivation of cathepsin G; assay type: biochemical
T2 construct: from tissue; host or cells: human leukocytes
T2 sequence (P08311 21-255): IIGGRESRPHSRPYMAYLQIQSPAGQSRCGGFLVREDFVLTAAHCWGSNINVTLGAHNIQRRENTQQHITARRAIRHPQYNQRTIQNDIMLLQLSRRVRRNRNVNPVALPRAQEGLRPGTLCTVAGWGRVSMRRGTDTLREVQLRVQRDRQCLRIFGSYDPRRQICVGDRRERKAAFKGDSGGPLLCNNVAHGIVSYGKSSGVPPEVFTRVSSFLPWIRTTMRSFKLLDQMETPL

rat granule chymase [2] = assay: Inhibition of rat granule chymase; assay type: biochemical; details: Table XIV, not time dependent
Experimental: (§1) ^a Inhibition was measured at 0.1M Hepes, 0.5M NaCl, pH 7.5 buffer,
(§2) 10% Me2 SO and 25° C. Suc--Phe--Leu--PheSBzl (0.14 mM) and
(§3) ZGly--ArgSBzl (0.06 mM) were used to measure chymase and tryptase activit

rat granule tryptase = assay: Inhibition of rat granule tryptase; assay type: biochemical; details: Table XIV
Experimental: as §1, §2, §3

chymotrypsin [3] = molecular target: T1, chymotrypsin; assay: Reactivation of inhibited chymotrypsin; assay type: biochemical, bovine
Experimental: (§4) ^a Inhibition was performed at 0.1M Hepes, 0.5M NaCl, pH 7.5 buffer,
(§5) 10% Me2 SO and 25° C. Reactivation was carried out in the
presence of 0.36M of NH2 OH, and occurred immediately after the
^b Enzyme activity was measured after two days.

rat granule chymase [4] = assay: Reactivation of inhibited rat granule chymase; assay type: biochemical; details: [I] 39 μM; +NH2OH 0.36M
Experimental: as §4, §5
presence of 0.36M of NH2 OH, and occurred immediately after the […]

bovine thrombin = molecular target: T3, bovine thrombin (Bos taurus, UniProt P00735); assay: Inactivation rate of bovine thrombin; assay type: biochemical; details: Table VIII; pH 7.5, 25° C; [I] 1.2-54 μM; read-out: kobs/[I]
T3 construct: bovine thrombin
Summary of the method: (§6)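 Incubation method: isocoumarin inhibitor in Me2SO added to enzyme (0.01-2.3 μM) in 0.1M Hepes, 0.01M CaCl2, pH 7.5, 8-12% Me2SO, 25° C; aliquots withdrawn over time for residual activity against peptide thioester or 4-nitroanilide substrates. kobs from ln(vt/vo) vs time.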

bovine trypsin = molecular target: T4, bovine trypsin (Bos taurus, UniProt P00760); assay: Inactivation rate of bovine trypsin; assay type: biochemical; details: Table VIII; pH 7.5, 25° C; [I] 1.1-4.6 μM; read-out: kobs/[I]
T4 sequence (P00760 24-246): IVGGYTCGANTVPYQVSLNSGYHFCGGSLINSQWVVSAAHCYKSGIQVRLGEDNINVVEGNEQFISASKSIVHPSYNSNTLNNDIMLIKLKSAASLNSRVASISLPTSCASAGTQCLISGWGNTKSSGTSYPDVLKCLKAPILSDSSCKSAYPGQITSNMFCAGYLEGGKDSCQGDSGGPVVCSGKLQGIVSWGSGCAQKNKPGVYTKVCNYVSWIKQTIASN
Summary of the method: as §6

human thrombin = molecular target: T5, human thrombin (Homo sapiens, UniProt P00734); assay: Inactivation rate of human thrombin; assay type: biochemical; details: Table VIII; pH 7.5, 25° C; [I] 1.2-54 μM; read-out: kobs/[I]
T5 construct: human thrombin
Summary of the method: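 Incubation method: enzyme (0.01-2.3 μM) mixed with inhibitor in 0.1M Hepes, 0.01M CaCl2, pH 7.5, 8% Me2SO, 25° C; residual activity sampled over time with peptide thioester or 4-nitroanilide substrates. kobs from ln(vt/vo) vs time plots.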

human lung tryptase = assay: Inactivation rate of human lung tryptase; assay type: biochemical; details: Table IX; pH 7.5, 25° C; [I] 0.42-0.47 μM
Summary of the method: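 Incubation method in 0.1M Hepes, 0.5M NaCl, pH 7.5, 8% Me2SO, 25° C; inhibitor added to enzyme, aliquots withdrawn over time for residual activity. Substrate ZArg-SBzl (0.07 mM) with 4,4'-dithiodipyridine (0.33 mM). kobs from ln(vt/vo) vs time plots.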

rat skin tryptase = molecular target: T6, rat skin tryptase (Rattus norvegicus, UniProt P27435); assay: Inactivation rate of rat skin tryptase; assay type: biochemical; details: pH 7.5, Table IX; pH 7.5, 25° C; [I] 0.42-0.51 μM; read-out: kobs/[I]
T6 construct: from tissue; host or cells: rat skin
Summary of the method: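 Rat skin tryptase incubated with isocoumarin inhibitor in 25 mM phosphate, 0.5 M NaCl, 1 mM EDTA, pH 7.5, 8-9% Me2SO, 25 °C; aliquots withdrawn over time for residual activity on ZArg-SBzl (0.07 mM) with 4,4'-dithiodipyridine (0.33 mM). First-order kobs from ln(vt/vo) versus time.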

[5] = molecular target: T7, porcine pancreatic elastase (PPE) (Sus scrofa, UniProt P00772); assay: Inactivation of porcine pancreatic elastase (PPE); assay type: biochemical; details: Table X; after 20 min incubation
T7 construct: from tissue; host or cells: porcine pancreas (from the name)

[6] = molecular target: T8, human leukocyte elastase (HLE) (Homo sapiens, UniProt P08246); assay: Inactivation of human leukocyte elastase (HLE); assay type: biochemical; details: Table X; pH 7.5, 25° C; [I] 2.1-42 μM; read-out: kobs/[I]
T8 construct: from tissue; host or cells: human leukocytes (from the name)
T8 sequence (P08246 30-267): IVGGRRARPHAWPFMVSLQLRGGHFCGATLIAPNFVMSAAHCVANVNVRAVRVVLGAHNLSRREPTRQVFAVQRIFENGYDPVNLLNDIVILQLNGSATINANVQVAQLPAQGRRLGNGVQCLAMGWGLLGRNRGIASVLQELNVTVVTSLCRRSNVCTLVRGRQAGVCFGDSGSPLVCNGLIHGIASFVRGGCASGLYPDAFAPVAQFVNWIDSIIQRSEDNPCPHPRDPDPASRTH

human plasmin = molecular target: T9, human plasmin (Homo sapiens, UniProt P00747); assay: Inactivation rate of human plasmin; assay type: biochemical; details: Table IX; 0.01M CaCl2, pH 7.5, 25° C; [I] 8.3-41 μM; read-out: kobs/[I]
T9 construct: human plasmin; from tissue; host or cells: human plasma

[7] = molecular target: recombinant human tissue plasminogen activator (Homo sapiens, UniProt P00750); assay: Inactivation rate of recombinant human tissue plasminogen activator; assay type: biochemical; details: pH 7.5, Table IX; pH 7.5, 25° C; [I] 3.5-5.0 μM; read-out: kobs/[I]
Summary of the method: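 Incubation method: enzyme mixed with inhibitor in Me2SO (8–12% v/v) in 0.1M Hepes, 0.5M NaCl, pH 7.5; aliquots withdrawn over time for residual activity with ZArg-SBzl (0.07 mM) plus 4,4'-dithiodipyridine (0.33 mM). kobs taken from ln(vt/vo) versus time plots.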

human skin tryptase = assay: Inhibition of human skin tryptase; assay type: biochemical; details: Table IX
Experimental: Inactivation rates of serine proteases by substituted isocoumarins were measured by the incubation method. An aliquot of inhibitor (25 or 50 μl) in Me2 SO was added to a buffered enzyme solution (0.01-2.3 μM) to initiate the inactivation. Aliquots (50 μl) were withdrawn at various intervals and the residual enzymatic activity was measured. Me2 SO concentration in the reaction mixture was 8-12% (v/v). 0.1 Hepes, 0.01M CaCl2, pH 7.5 buffer was utilized for trypsin and coagulation enzymes. 0.1M Hepes, 0.5M NaCl, pH 7.5 was utilized for other serine proteases. The inhibitor concentrations are shown in all the tables. Peptide thioesters or peptide nitroanilides with appropriate sequence were used as substrates for various serine proteases. All peptide thioester hydrolysis rates were measured with assay mixtures containing 4,4'-dithiodipyridine (ε324 =19800M^-1 cm^-1; Grasetti & Murray, Arch. Biochem. Biophys. 119, pp 41-49 (1967)). Peptide 4-nitroanilide nitroanilide hydrolysis was measured at 410 nm (ε410 =8800M^-1 cm^-1; Erlanger et al., Arch. Biochem. Biophys. 95, pp 271-278 (1961)). First order inactivation rate constant (kobs) were obtained from plots of ln (vt /vo) vs time, and the correlation coefficients were greater than 0.98.
^a Inhibition rates were measured in 0.1M Hepes, 0.01M CaCl2, pH
7.5 buffer for human plasmin; 25 mM Phosphate, 0.5M NaCl, 1 mM EDTA, pH
7.5 buffer for rat skin tryptase and 0.1M Hepes, 0.5M NaCl, pH 7.5 for
human lung tryptase, human skin tryptase and rt-PA. All enzymes were
assayed with ZArg-SBzl (0.07 mM) in the presence of 4,4dithiodipyridine
(0.33 mM). Reaction mixtures contained 8% Me2 SO and assays were […]

[8] = Spontaneous hydrolysis in Hepes buffer; assay type: physicochemical; details: 0.1 Hepes, 0.5M NaCl, pH 7.5, 9% Me2SO, 25° C
Experimental: ^a Conditions were 0.1 Hepes, 0.5M NaCl, pH 7.5 and 9% Me2 SO at
25° C. Spontaneous hydrolysis rates were measured
spectrophotometrically by monitoring the decrease in absorbance due to th
isocoumarin ring system (wavelength 335-380 nm) using the firstorder rate

human factor Xa = molecular target: T10, human factor Xa (Homo sapiens, UniProt P00742); assay: Inactivation rate of human factor Xa; assay type: biochemical; details: Table VIII; pH 7.5, 25° C; [I] 3.6-44 μM; read-out: kobs/[I]
T10 construct: human factor Xa
Summary of the method: as §6

human factor XIIa = molecular target: T11, human factor XIIa (Homo sapiens, UniProt P00748); assay: Inactivation rate of human factor XIIa; assay type: biochemical; details: Table VIII; pH 7.5, 25° C; [I] 3.6-4.9 μM; read-out: kobs/[I]
T11 construct: human factor XIIa
T11 sequence (P00748 373-615 limits assumed): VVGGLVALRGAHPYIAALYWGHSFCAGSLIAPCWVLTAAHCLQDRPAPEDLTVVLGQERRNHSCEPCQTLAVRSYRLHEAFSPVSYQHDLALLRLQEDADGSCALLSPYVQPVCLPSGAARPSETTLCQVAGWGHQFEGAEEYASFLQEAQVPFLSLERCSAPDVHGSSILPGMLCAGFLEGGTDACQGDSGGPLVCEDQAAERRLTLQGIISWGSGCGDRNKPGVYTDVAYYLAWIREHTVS
T11 sequence (P00748 20-372 partner limits assumed): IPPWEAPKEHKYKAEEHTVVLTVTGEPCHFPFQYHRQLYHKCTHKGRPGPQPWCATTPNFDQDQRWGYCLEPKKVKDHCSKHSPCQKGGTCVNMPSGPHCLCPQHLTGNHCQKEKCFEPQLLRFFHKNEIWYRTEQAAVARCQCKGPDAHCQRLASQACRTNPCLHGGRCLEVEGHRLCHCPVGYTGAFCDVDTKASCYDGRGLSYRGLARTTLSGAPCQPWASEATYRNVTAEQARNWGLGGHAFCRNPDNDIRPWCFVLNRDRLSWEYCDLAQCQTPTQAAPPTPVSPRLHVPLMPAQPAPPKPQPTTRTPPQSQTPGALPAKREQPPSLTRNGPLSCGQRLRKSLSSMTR
Summary of the method: as §6

[9] = [I] 39 μM, in buffer, after two days
[10] = [I] 78 μM, in buffer, after two days

T6 sequence (P27435 29-273): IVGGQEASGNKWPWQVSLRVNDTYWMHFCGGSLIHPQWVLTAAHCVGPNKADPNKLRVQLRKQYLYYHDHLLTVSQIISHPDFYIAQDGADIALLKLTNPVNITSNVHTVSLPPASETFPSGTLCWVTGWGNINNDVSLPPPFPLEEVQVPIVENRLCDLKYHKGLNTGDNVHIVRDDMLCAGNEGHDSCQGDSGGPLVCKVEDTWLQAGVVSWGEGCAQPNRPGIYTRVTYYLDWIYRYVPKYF
recombinant human tissue plasminogen activator, sequence (P00750 36-562): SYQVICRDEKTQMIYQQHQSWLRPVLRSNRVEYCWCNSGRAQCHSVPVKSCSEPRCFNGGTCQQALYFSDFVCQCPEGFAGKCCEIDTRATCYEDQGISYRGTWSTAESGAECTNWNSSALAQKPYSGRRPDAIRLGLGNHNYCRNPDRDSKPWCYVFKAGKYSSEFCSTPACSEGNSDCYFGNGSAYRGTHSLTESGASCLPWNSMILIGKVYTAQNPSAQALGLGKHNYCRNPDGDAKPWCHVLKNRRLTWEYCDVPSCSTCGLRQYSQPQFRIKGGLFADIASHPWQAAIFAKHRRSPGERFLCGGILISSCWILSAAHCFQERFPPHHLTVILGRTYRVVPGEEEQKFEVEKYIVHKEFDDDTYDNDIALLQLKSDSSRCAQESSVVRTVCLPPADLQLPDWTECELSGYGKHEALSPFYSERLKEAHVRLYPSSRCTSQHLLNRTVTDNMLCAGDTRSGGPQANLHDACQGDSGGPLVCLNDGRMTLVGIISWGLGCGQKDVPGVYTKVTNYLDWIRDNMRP
T10 sequence (P00742 235-488 limits assumed): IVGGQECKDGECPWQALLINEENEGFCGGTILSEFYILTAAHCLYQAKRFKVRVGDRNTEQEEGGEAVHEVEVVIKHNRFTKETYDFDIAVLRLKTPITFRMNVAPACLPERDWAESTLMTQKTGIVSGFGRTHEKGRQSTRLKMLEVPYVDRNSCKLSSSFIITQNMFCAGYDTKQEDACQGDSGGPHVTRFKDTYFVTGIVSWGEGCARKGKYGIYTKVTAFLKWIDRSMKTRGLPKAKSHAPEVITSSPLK
T10 sequence (P00742 41-179 partner limits assumed): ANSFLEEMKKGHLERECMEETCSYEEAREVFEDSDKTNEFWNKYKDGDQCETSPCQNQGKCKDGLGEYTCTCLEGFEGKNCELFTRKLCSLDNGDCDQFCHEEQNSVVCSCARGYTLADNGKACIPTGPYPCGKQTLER
T9 sequence (P00747 581-810 limits assumed): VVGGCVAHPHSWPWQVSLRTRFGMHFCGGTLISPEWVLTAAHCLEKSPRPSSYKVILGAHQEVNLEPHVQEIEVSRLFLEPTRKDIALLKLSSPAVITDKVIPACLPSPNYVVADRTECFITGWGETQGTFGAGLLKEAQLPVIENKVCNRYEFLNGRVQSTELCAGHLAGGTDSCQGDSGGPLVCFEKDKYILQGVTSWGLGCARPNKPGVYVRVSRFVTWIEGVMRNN
T9 sequence (P00747 97-580 partner limits assumed): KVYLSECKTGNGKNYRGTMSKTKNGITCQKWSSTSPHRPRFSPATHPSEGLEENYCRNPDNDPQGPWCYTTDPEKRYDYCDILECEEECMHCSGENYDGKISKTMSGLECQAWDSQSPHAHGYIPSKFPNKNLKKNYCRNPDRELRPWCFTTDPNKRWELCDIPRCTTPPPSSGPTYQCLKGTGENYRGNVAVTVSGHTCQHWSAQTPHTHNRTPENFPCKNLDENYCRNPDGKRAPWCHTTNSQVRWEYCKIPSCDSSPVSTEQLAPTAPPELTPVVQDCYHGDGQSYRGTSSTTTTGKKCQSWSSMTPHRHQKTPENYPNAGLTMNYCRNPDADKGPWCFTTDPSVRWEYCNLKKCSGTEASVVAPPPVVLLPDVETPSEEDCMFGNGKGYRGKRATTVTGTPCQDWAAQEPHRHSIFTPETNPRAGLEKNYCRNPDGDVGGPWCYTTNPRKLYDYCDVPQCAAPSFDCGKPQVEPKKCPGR
T7 sequence (P00772 27-266): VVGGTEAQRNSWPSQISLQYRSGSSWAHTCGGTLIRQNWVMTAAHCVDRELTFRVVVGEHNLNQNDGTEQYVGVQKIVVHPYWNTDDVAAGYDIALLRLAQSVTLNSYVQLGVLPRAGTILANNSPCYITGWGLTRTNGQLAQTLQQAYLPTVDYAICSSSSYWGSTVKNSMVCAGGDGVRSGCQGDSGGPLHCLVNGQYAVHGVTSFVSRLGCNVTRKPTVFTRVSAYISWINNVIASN

O=C(CCCC[C@@H]1SC[C@@H]2NC(=O)N[C@@H]21)NCCCCCC(=O)Nc1ccc2c(Cl)c(OCCc3ccccc3)oc(=O)c2c1 [7-(6-biotinylaminocaproyl)amino-4-chloro-3-(2-phenylethoxy)isocoumarin]
kinact/KI (chymotrypsin [1]; Table XIII, [I] 20-400 μM): 1080 M⁻¹ s⁻¹
inhibition (cathepsin G; Table XIII, [I] 75-400 μM): 13%
% of inhibition (rat granule chymase [2]; [I] 0.078 mM): 30-50%
kobs/[I] (rat granule tryptase; [I] 0.078 mM): 6 to 12 M⁻¹ s⁻¹
% of Enzyme Activity Reactivated (chymotrypsin [3]; [I] 39 μM, +NH2OH 0.36M): 50%
% of Enzyme Activity Reactivated (chymotrypsin [3]; [9]): 6%
% of Enzyme Activity Reactivated (chymotrypsin [3]; [I] 78 μM, +NH2OH 0.36M): 40%
% of Enzyme Activity Reactivated (chymotrypsin [3]; [10]): 0%
% of Enzyme Activity Reactivated (rat granule chymase [4]): 30-50%

O=C(CCCC[C@@H]1SC[C@@H]2NC(=O)N[C@@H]21)Nc1ccc2c(Cl)c(OCCc3ccccc3)oc(=O)c2c1 [7-biotinylamino-4-chloro-3-(2-phenylethoxy)isocoumarin]
% of inhibition (rat granule chymase [2]; [I] 0.2 mM): 10-20%
kobs/[I] (rat granule tryptase; [I] 0.2 mM): 2 to 3 M⁻¹ s⁻¹
% of Enzyme Activity Reactivated (chymotrypsin [3]; [I] 39 μM, +NH2OH 0.36M): 85%
% of Enzyme Activity Reactivated (chymotrypsin [3]; [9]): 51%
% of Enzyme Activity Reactivated (chymotrypsin [3]; [I] 78 μM, +NH2OH 0.36M): 79%
% of Enzyme Activity Reactivated (chymotrypsin [3]; [10]): 7%
% of Enzyme Activity Reactivated (rat granule chymase [4]): 100%

N=C(N)SCCCOc1oc(=O)c2cc(NC(=O)NCc3ccccc3)ccc2c1Cl [PhCH2 NHCONH-CiTPrOIC, 7-(benzylcarbamoylamino)-4-chloro-3-(3-isothiureidopropoxy)isocoumarin]
kinact/KI (bovine thrombin): 420 M⁻¹ s⁻¹
kinact/KI (bovine trypsin): 51000 M⁻¹ s⁻¹
kinact/KI (human thrombin): 700 M⁻¹ s⁻¹
kobs/[I] (human lung tryptase): 190,000 M^-1 s^-1
kinact/KI (rat skin tryptase): 270000 M⁻¹ s⁻¹
percentage of inhibition [5]: 9%
kinact/KI [6]: 250 M⁻¹ s⁻¹
kinact/KI (chymotrypsin [1]; Table X, [I] 0.9-43 μM): 13400 M⁻¹ s⁻¹
kinact/KI (cathepsin G; Table X, pH 7.5, 25° C, [I] 33-46 μM, read-out: kobs/[I]): 50 M⁻¹ s⁻¹
kinact/KI (human plasmin): 5120 M⁻¹ s⁻¹
kinact/KI [7]: 18000 M⁻¹ s⁻¹
percentage of inhibition (human skin tryptase; not time dependent, at 0.34-5.0 μM): 68%
t1/2 for spontaneous hydrolysis [8]: 2.47 h

N=C(N)SCCCOc1oc(=O)c2cc(NC(=O)Nc3ccccc3)ccc2c1Cl [PhNHCONH-CiTPrOIC, 7-(phenylcarbamoylamino)-4-chloro-3-(3-isothiureidopropoxy)isocoumarin]
kinact/KI (bovine thrombin): 970 M⁻¹ s⁻¹
kinact/KI (human factor Xa): 50 M⁻¹ s⁻¹
kinact/KI (human factor XIIa): 7720 M⁻¹ s⁻¹
kinact/KI (bovine trypsin): 63000 M⁻¹ s⁻¹
kinact/KI (human thrombin): 1840 M⁻¹ s⁻¹
kobs/[I] (human lung tryptase): 140,000 M^-1 s^-1
kinact/KI (rat skin tryptase): 250000 M⁻¹ s⁻¹
kinact/KI [7]: 19000 M⁻¹ s⁻¹
kobs/[I] (human skin tryptase; pH 7.5, 25° C, [I] 0.34-0.39 μM): 38,000 M^-1 s^-1
t1/2 for spontaneous hydrolysis [8]: 2.47 h
